Measurements reported in patent US20250382322A1, “DIAGNOSTICS FOR DETECTING ECTO-5'-NUCLEOTIDASE (CD73)” (EBERHARD KARLS UNIVERSITÄT TÜBINGEN, priority 2022, published 2025).

Tests used:
[1] = Determination of log D7.4 (1-octanol/PBS); format: physicochemical
Method: (§1) Determination of the log D7.4-value of [^18F]2. The lipophilicity of [^18F]2 was determined following the procedure described by Prante et al.^17 Triazole [^18F]2 (˜400 kBq) in PBS buffer (10 μL, pH 7.4) was added to PBS buffer (590 μL, pH 7.4) and octan-1-ol (600 μL). The two-layer mixture was shaken for 3 min on a vortex mixer at RT and centrifuged (3000 rpm) for 5 min. The main part of the octanol layer (400 μL) was collected carefully and added to a new tube with PBS buffer (400 μL, pH 7.4). The two-layer mixture was shaken again for 10 min and centrifuged for 5 min (3000 rpm). Three samples were prepared and two aliquots (á 100 μL) of both layers were measured in a g-counter 2480 Wizard2 (Perkin-Elmer, Waltham, USA). The partition coefficient was determined by dividing cpm(octanol) by cpm(PBS) and indicated as log D7.4 (exp.).
as §1, with “D7,4-value” for “D7.4-value”, “[^18F]PSB-19427.” for “[^18F]2.”, “[^18F]PSB-19427” for “[^18F]2”, “al.^28” for “al.^17”

s.c. AsPC-1 xenografts = assay: In vivo PET imaging in AsPC-1 tumor bearing mice; design: species or system NSG mice
Method: Animal models. All animal experiments were performed in accordance with the legal requirements of the European Community (Directive 2010/63/EU) and the corresponding German Animal Welfare Law (TierSchG, TierSchVersV) and were approved by the local authorizing agency (State Office for Nature, Environment and Consumer Protection North Rhine-Westphalia). MDA-MB-231 or AsPC-1 cells were cultivated in RPMI supplemented with 10% fetal calf serum and 100 U/mL penicillin and 100 μg/mL streptomycin. 5×10^6 MDA-MB-231 or AsPC-1 cells were injected subcutaneously into the shoulder region of 10 to 12 week old NSG mice (NOD.Cg-Prkdcscidll2rgtm1Wjl/SzJ, Charles River Laboratories). […]
In vivo Imaging. […] Three-dimensional volumes of interest (VOIs) were defined over the respective organs in CT data sets, transferred to the coregistered PET data, and analyzed quantitatively. Regional uptake was calculated as a percentage of injected dose by dividing counts per milliliter in the VOI by total counts in the mouse multiplied by 100 (% ID/mL).
(§2) Ex vivo gamma counter measurements. […] Ex vivo biodistribution of radioactivity was analyzed by scintillation counting (Wizard2 gamma counter, Perkin-Elmer Life Science) and the radioactivity in respective organs decay-corrected and calculated as % ID per gram tissue (% ID/g).

[2] = tested on: s.c. MDA-MB-231 xenografts; assay: In vivo PET imaging in MDA-MB-231 tumor bearing mice; design: species or system NSG mice
Method: Animal models. All animal experiments were performed in accordance with the legal requirements of the European Community (Directive 2010/63/EU) and the corresponding German Animal Welfare Law (TierSchG, TierSchVersV) and were approved by the local authorizing agency (State Office for Nature, Environment and Consumer Protection North Rhine-Westphalia). MDA-MB-231 or AsPC-1 cells were cultivated in RPMI supplemented with 10% fetal calf serum and 100 U/mL penicillin and 100 μg/mL streptomycin. 5×10^6 MDA-MB-231 or AsPC-1 cells were injected subcutaneously into the shoulder region of 10 to 12 week old NSG mice (NOD.Cg-Prkdcscidll2rgtm1Wjl/SzJ, Charles River Laboratories). Two tumors were inoculated per animal and growth was followed by digital caliper measurements (volume=½ (length*width^2)).
In vivo Imaging. Adult C57bl/6 (biodistribution study, 21±1 g) or tumor bearing NSG mice (24±3 g) were anesthetized by isoflurane/O2 and one lateral tail vein was cannulated using a 27 G needle connected to 15 cm polyethylene catheter tubing. ^18F-PSB-19427 (˜450 kBq/g body weight) were injected as a bolus (50 μL compound flushed with 50 μL saline) via the tail vein and subsequent PET scanning was performed. In the blocking studies, a subgroup of tumor-bearing mice was injected with ˜1000 fold excess of unlabeled PSB-19427 10 minutes prior to radiotracer injection. […] Three-dimensional volumes of interest (VOIs) were defined over the respective organs in CT data sets, transferred to the coregistered PET data, and analyzed quantitatively. Regional uptake was calculated as a percentage of injected dose by dividing counts per milliliter in the VOI by total counts in the mouse multiplied by 100 (% ID/mL).
as §2

[3] = molecular target: T1, recombinant soluble human CD73 (Homo sapiens, UniProt P21589, T376A); assay: CD73 enzyme inhibition assay with [2,8-3H]AMP, soluble human CD73; format: biochemical; details: [2,8-3H]AMP (5 μM) as substrate; Ki from IC50 by Cheng-Prusoff; read-out: Human soluble CD73 Ki ± SEM
T1 construct: mature human CD73 (residues 27-549) fused to 6×His-tag at the C-terminus; 6xHis (C); made in house; host or cells: Spodoptera frugiperda Sf9 insect cells (baculovirus, pAcGP67B vector)
T1 sequence (P21589 27-549 T376A): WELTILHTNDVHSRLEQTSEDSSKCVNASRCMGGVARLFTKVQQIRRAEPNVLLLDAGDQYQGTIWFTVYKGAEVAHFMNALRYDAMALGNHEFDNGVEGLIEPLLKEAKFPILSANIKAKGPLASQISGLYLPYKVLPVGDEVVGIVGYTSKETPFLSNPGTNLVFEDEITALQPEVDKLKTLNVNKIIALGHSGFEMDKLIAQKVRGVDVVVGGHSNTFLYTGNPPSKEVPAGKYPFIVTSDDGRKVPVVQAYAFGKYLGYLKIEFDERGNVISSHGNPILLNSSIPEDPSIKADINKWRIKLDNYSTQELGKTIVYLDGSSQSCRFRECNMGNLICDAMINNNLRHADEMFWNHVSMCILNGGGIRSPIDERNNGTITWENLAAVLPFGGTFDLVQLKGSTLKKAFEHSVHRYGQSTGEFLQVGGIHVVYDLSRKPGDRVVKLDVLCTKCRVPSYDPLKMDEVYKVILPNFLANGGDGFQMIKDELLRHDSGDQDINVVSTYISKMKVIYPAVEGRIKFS
Method: Compound 2b, its precursor 1, and 20 were investigated for their CD73-inhibitory potency using tritium-labeled AMP as a substrate.^20 After incubation with CD73, non-hydrolyzed substrate and inorganic phosphate were precipitated using a solution of lanthanum chloride, and the precipitate was separated from the solution containing the reaction product [2,8-^3H]adenosine by filtration through GF/B glass fiber filters (WhatmanTM GE Healthcare, Chicago, IL, USA) using a cell harvester (M-48, Brandel, Gaitherburg, MD, USA). The filtrates (ca. 1.8 mL each) were transferred to scintillation vials, scintillation cocktail ULTIMA Gold XR (PerkinElmer, Waltham, MA, USA) was added (5 mL), and the radioactivity esd quantified by scintillation counting. CD73 preparations were (1) recombinant soluble human CD73,^13 (2) recombinant soluble rat CD73,^21 both expressed in Spodoptera frugiperda 9 (Sf) cells, (3) membrane preparations of MDA-MB-231 cells,^16 a human triple-negative breast cancer cell line with high expression of CD73,^18 and (4) membrane preparations of the 4T1.2 cell line, a mouse CD73-expressing breast cancer cell line.^22 The potency of the compounds was determined by measurements of full concentration-inhibition curves. K values were calcuated from the obtained IC50 values employing the Cheng-Prusoff equation.^23
Human soluble CD73 was expressed in Spodoptera frugiperda (Sf9) insect cells and purified as previously described.^16 The cDNA encoding for the mature human CD73 (residues 27-549) fused to 6×His-tag at the C-terminus (Genbank accession no. NM_002526) corresponding to the natural variant T376A (P21589/VAR_022091, UniProtKB/Swiss-Prot) was ligated into the pAcGP67B vector. For transfection, 1 μl of the recombinant vector (1000 ng/μl) mixed with 2.5 μl of baculovirus genomic DNA ProEasy™ (AB vector, CA, USA) was used to transfect Sf9 cells grown in Insect-XPRESS™ medium (#BE12-7300, Lonza, Switzerland) supplemented with 10 mg/l gentamicin. […]

Row | factor of increase of measured solubility in PBS-buffer (1-octanol/PBS) versus clog P ([1]; compared to clog P 0.22) | factor of increase of measured solubility in PBS-buffer (1-octanol/PBS) versus clog P ([1]; compared to clog P 0.47) | logD ([1]; octan-1-ol/PBS buffer, 1-octanol/PBS pH 7.4) | accumulation of the tracer in the tumor xenografts as compared to muscle tissue (s.c. AsPC-1 xenografts; PET 4 h p.i., i.v., AsPC-1 xenografts) | accumulation in the tumor as compared to FDG ([2]; MDA-MB-231 tumors, 90 min and 4 h, especially in relation to muscle uptake) | accumulation of the tracer in the tumor xenografts as compared to muscle tissue ([2]; PET 4 h p.i., i.v., MDA-MB-231 xenografts) | Ki [3] | SMILES | change of tumor-to-muscle ratios in blocking study (s.c. AsPC-1 xenografts; AsPC-1, pretreating with PSB-12651 (7) 10 min before tracer injection) | change of tumor-to-muscle ratios in blocking study ([2]; MDA-MB-231, pretreating with unlabeled compound 2 10 min before tracer injection)
1 | 2.2 | 3.9 | -0.12 ± 0.03 | pronounced accumulation | higher accumulation | pronounced accumulation |  | CCCN(Cc1ccc(-c2cn(CC[18F])nn2)cc1)c1nc(Cl)nc2c1ncn2C1O[C@H](COP(=O)(O)CP(=O)(O)O)C(O)C1O (stereo partly drawn) [[^18F]2, [^18F]-[((2R,3S,4R,5R)-5-{2-chloro-6-[(4-{1-[2-(fluoro)ethyl]-1H-1,2,3-triazol-4-yl}benzyl)(propyl)amino]-9H-purin-9-yl}-3,4-dihydroxytetrahydrofuran-2-yl)methoxy]methylenebisphosphonic acid] | significant decrease of tumor-to-muscle ratios | significant decrease of tumor-to-muscle ratios
2 |  |  |  |  |  |  | 0.372 ± 0.03 nM | C#Cc1ccc(CN(CCC)c2nc(Cl)nc3c2ncn3[C@@H]2O[C@H](COP(=O)(O)CP(=O)(O)O)C(O)C2O)cc1 (stereo partly drawn) [Compound 1] |  | 
